Measurements from patent publication US9585877B2, “Methods of maintaining, treating or improving cognitive function” (Forum Pharmaceuticals, Inc., priority 2012, dated 2017).

Assays:
Format in all cases: in vivo, human
[1] = test system: subjects with mild-to-moderate Alzheimer's disease; test: Clinical study, Cognition composite score
Description: (§1) A double-blind study of 3 doses of the Test Composition or placebo in subjects with mild-to-moderate Alzheimer's disease, with or without receiving a concomitant AChEI for 24 weeks (168 days) after a 7 day placebo run-in period.
(§2) Subjects with mild to moderate Alzheimer's disease receiving stable treatment with an AChEI (donepezil or rivastigmine: ‘add-on’ subjects) or not receiving an AChEI (de novo subjects′) received 0.3, 1, or 2 mg doses of Test Composition or placebo for up to 24 weeks (168 days) of double-blind treatment, after a 7-day single-blind, placebo run-in period to assess study drug compliance. A follow-up telephone contact was conducted approximately 15 days after the last dose of study drug for questions regarding safety.
(§3) These analyses were prespecified in the analytical plan (ITT population), and included the following: Cognition composite score (ADAS-cog Word Recall, Word Recognition, & Orientation, and COWAT and CFT), Memory composite score (ADAS-cog Word Recall, Word Recognition, and Orientation), and Executive Function composite score (COWAT and CFT).
(§4) Composite Scores—Three composite scores were calculated: (1) Composite Cognition Score (ADAS-cog Word Recall, Word Recognition, and Orientation, COWAT and CFT); (2) Memory Composite Score (ADAS-cog Word Recall, Word Recognition, and Orientation); and (3) Executive Function Composite Score (COWAT and CFT).
(§5) The composite score is only computed when all test scores are available.

[2] = test system: subjects with mild-to-moderate Alzheimer's disease; test: Clinical study, Controlled Oral Word Association Test (COWAT); settings: 2 mg dose versus Placebo
Description: as §1
(§6) Total number of subjects in the safety population was 409 subjects that were dosed once-daily with a dosing-capsule for a period of 168 days. The subjects dosed, and the particular dosing, included: 104 subjects dosed with Placebo capsule; and 305 subjects dosed with Test Compound (104 subjects with 0.3 mg capsules; 101 subjects with 1 mg capsules; and 100 subjects with 2 mg capsules).
The population included generally healthy male or female subjects, aged 50 to ≦85 years, with mild-to-moderate Alzheimer's disease, consistent with criteria defined by a Work Group of the National Institute of Neurological and Communicative Disorders and Stroke—Alzheimer's Disease and Related Disorders Association, of mild to moderate severity, with a Mini-Mental State Examination score (MMSE) 14 and ≦24, and a Clinical Dementia Rating Scale Sum of the Boxes (CDR-SB) score of 2. […]
The COWAT test includes (1) asking the subject to name words beginning with a specific letter (e.g., F, A, S), (2) each of 3 trials is timed for 60 seconds, and (3) the score is calculated by the number of new words beginning with the assigned letter.

[3] = test system: subjects with mild-to-moderate Alzheimer's disease; test: Clinical study, Mini-Mental State Examination (MMSE)
Description: as §1, §6
(§7) The population included generally healthy male or female subjects, aged 50 to ≦85 years, with mild-to-moderate Alzheimer's disease, consistent with criteria defined by a Work Group of the National Institute of Neurological and Communicative Disorders and Stroke—Alzheimer's Disease and Related Disorders Association, of mild to moderate severity, with a Mini-Mental State Examination score (MMSE) 14 and ≦24, and a Clinical Dementia Rating Scale Sum of the Boxes (CDR-SB) score of 2. […] Subjects were required to be either receiving a stable dose of an AChEI (donepezil or rivastigmine) for at least 3 months before screening or not presently being treated with an AChEI or mementine for at least 30 days.
as §2
Mini-Mental State Examination (MMSE)
The MMSE test employed herein is based on the procedure developed by Folstein, M., Folstein, S., McHugh, P. Mini-Mental State: “A Practical Method for Grading the Cognitive State of Patients for the Clinician”; Journal of Psychiatric Research 1975, 12:189-98.
The MMSE test assesses and/or evaluates memory, orientation, recognition, attention, concentration, language, and praxis. The MMSE total score ranges from 0 to 30 points. Lower scores indicate a lower level of functioning. An increase from baseline indicates improvement.

[4] = test system: subjects with mild-to-moderate Alzheimer's disease; test: Clinical study, ADAS-Cog-13
Description: as §1, §6, §7, §2
Cognitive Part of the Alzheimer's Disease Assessment Scale (ADAS-Cog-13)
The ADAS-Cog-13 is identical to the ADAS-Cog-11 assessment group (see above), with the addition of test items: Delayed Word Recall, and Digit (Number) Cancellation.
The ADAS-cog-13 total score ranges from 0 to 85 (higher scores indicate more severe impairment). A decrease from baseline indicates improvement.

[5] = test system: subjects with mild-to-moderate Alzheimer's disease; test: Clinical study, Memory composite score
Description: as §1, §2, §3, §4, §5

[6] = 2 mg versus placebo, over a 23 week period

Cl.O.O=C(N[C@H]1CN2CCC1CC2)c1cc2cccc(Cl)c2s1 [Test Compound, (R)-7-chloro-N-(quinuclidin-3-yl)benzo[b]thiophene-2-carboxamide, hydrochloride, monohydrate]
Cognition Composite Score (Baseline was assigned the value of zero @ Week 0) ([1]; 0.3 mg daily dose, Week 4): 0.0036
Cognition Composite Score (Baseline was assigned the value of zero @ Week 0) ([1]; 0.3 mg daily dose, Week 12): 0.0171
Cognition Composite Score (Baseline was assigned the value of zero @ Week 0) ([1]; 0.3 mg daily dose, Week 18): −0.0245
Cognition Composite Score (Baseline was assigned the value of zero @ Week 0) ([1]; 0.3 mg daily dose, Week 23): −0.0451
Cognition Composite Score (Baseline was assigned the value of zero @ Week 0) ([1]; 1 mg daily dose, Week 4): 0.0042
Cognition Composite Score (Baseline was assigned the value of zero @ Week 0) ([1]; 1 mg daily dose, Week 12): 0.0804
Cognition Composite Score (Baseline was assigned the value of zero @ Week 0) ([1]; 1 mg daily dose, Week 18): −0.0102
Cognition Composite Score (Baseline was assigned the value of zero @ Week 0) ([1]; 1 mg daily dose, Week 23): 0.0287
Cognition Composite Score (Baseline was assigned the value of zero @ Week 0) ([1]; 2 mg daily dose, Week 4): −0.0084
Cognition Composite Score (Baseline was assigned the value of zero @ Week 0) ([1]; 2 mg daily dose, Week 12): 0.0513
Cognition Composite Score (Baseline was assigned the value of zero @ Week 0) ([1]; 2 mg daily dose, Week 18): 0.0915
Cognition Composite Score (Baseline was assigned the value of zero @ Week 0) ([1]; 2 mg daily dose, Week 23): 0.1276
Cognition composite score Effect Size [1, 6]: 0.42
COWAT Effect Size [2]: 0.35
MMSE (Baseline was assigned the value of zero @ Week 0) ([3]; 0.3 mg daily dose, Week 4): −0.0411
MMSE (Baseline was assigned the value of zero @ Week 0) ([3]; 0.3 mg daily dose, Week 12): 0.185
MMSE (Baseline was assigned the value of zero @ Week 0) ([3]; 0.3 mg daily dose, Week 18): −0.3601
MMSE (Baseline was assigned the value of zero @ Week 0) ([3]; 0.3 mg daily dose, Week 23): −0.3112
MMSE (Baseline was assigned the value of zero @ Week 0) ([3]; 1 mg daily dose, Week 4): 0.9142
MMSE (Baseline was assigned the value of zero @ Week 0) ([3]; 1 mg daily dose, Week 12): 0.7836
MMSE (Baseline was assigned the value of zero @ Week 0) ([3]; 1 mg daily dose, Week 18): 0.7253
MMSE (Baseline was assigned the value of zero @ Week 0) ([3]; 1 mg daily dose, Week 23): 0.4416
MMSE (Baseline was assigned the value of zero @ Week 0) ([3]; 2 mg daily dose, Week 4): 0.5262
MMSE (Baseline was assigned the value of zero @ Week 0) ([3]; 2 mg daily dose, Week 12): 0.3526
MMSE (Baseline was assigned the value of zero @ Week 0) ([3]; 2 mg daily dose, Week 18): 0.723
MMSE (Baseline was assigned the value of zero @ Week 0) ([3]; 2 mg daily dose, Week 23): 0.5139
MMSE Effect Size ([3]; 2 mg dose versus Placebo): 0.21
ADAS-Cog-13 (Baseline was assigned the value of zero @ Week 0) ([4]; 0.3 mg daily dose, Week 4): −0.615
ADAS-Cog-13 (Baseline was assigned the value of zero @ Week 0) ([4]; 0.3 mg daily dose, Week 12): −0.5876
ADAS-Cog-13 (Baseline was assigned the value of zero @ Week 0) ([4]; 0.3 mg daily dose, Week 18): −0.3132
ADAS-Cog-13 (Baseline was assigned the value of zero @ Week 0) ([4]; 0.3 mg daily dose, Week 23): 0.0915
ADAS-Cog-13 (Baseline was assigned the value of zero @ Week 0) ([4]; 1 mg daily dose, Week 4): −0.8012
ADAS-Cog-13 (Baseline was assigned the value of zero @ Week 0) ([4]; 1 mg daily dose, Week 12): −1.2029
ADAS-Cog-13 (Baseline was assigned the value of zero @ Week 0) ([4]; 1 mg daily dose, Week 18): −0.3222
ADAS-Cog-13 (Baseline was assigned the value of zero @ Week 0) ([4]; 1 mg daily dose, Week 23): −0.0565
ADAS-Cog-13 (Baseline was assigned the value of zero @ Week 0) ([4]; 2 mg daily dose, Week 4): −0.0185
ADAS-Cog-13 (Baseline was assigned the value of zero @ Week 0) ([4]; 2 mg daily dose, Week 12): −1.4328
ADAS-Cog-13 (Baseline was assigned the value of zero @ Week 0) ([4]; 2 mg daily dose, Week 18): −1.6593
ADAS-Cog-13 (Baseline was assigned the value of zero @ Week 0) ([4]; 2 mg daily dose, Week 23): −1.6899
ADAS-Cog 13 Effect Size ([4]; 2 mg dose versus Placebo): 0.39
ADAS-Cog-13 (Baseline was assigned the value of zero @ Week 0) ([4]; Add-On patients (stable donepezil or rivastigmine), 0.3 mg daily dose, Week 4): −0.9985
ADAS-Cog-13 (Baseline was assigned the value of zero @ Week 0) ([4]; Add-On patients (stable donepezil or rivastigmine), 0.3 mg daily dose, Week 12): −0.2474
ADAS-Cog-13 (Baseline was assigned the value of zero @ Week 0) ([4]; Add-On patients (stable donepezil or rivastigmine), 0.3 mg daily dose, Week 18): −0.4557
ADAS-Cog-13 (Baseline was assigned the value of zero @ Week 0) ([4]; Add-On patients (stable donepezil or rivastigmine), 0.3 mg daily dose, Week 23): 0.2752
ADAS-Cog-13 (Baseline was assigned the value of zero @ Week 0) ([4]; Add-On patients (stable donepezil or rivastigmine), 1 mg daily dose, Week 4): −1.0728
ADAS-Cog-13 (Baseline was assigned the value of zero @ Week 0) ([4]; Add-On patients (stable donepezil or rivastigmine), 1 mg daily dose, Week 12): −0.0705
ADAS-Cog-13 (Baseline was assigned the value of zero @ Week 0) ([4]; Add-On patients (stable donepezil or rivastigmine), 1 mg daily dose, Week 18): 0.6239
ADAS-Cog-13 (Baseline was assigned the value of zero @ Week 0) ([4]; Add-On patients (stable donepezil or rivastigmine), 1 mg daily dose, Week 23): 1.4205
ADAS-Cog-13 (Baseline was assigned the value of zero @ Week 0) ([4]; Add-On patients (stable donepezil or rivastigmine), 2 mg daily dose, Week 4): −0.455
ADAS-Cog-13 (Baseline was assigned the value of zero @ Week 0) ([4]; Add-On patients (stable donepezil or rivastigmine), 2 mg daily dose, Week 12): −0.9708
ADAS-Cog-13 (Baseline was assigned the value of zero @ Week 0) ([4]; Add-On patients (stable donepezil or rivastigmine), 2 mg daily dose, Week 18): −1.8659
ADAS-Cog-13 (Baseline was assigned the value of zero @ Week 0) ([4]; Add-On patients (stable donepezil or rivastigmine), 2 mg daily dose, Week 23): −1.1679
ADAS-Cog-13 (Baseline was assigned the value of zero @ Week 0) ([4]; de novo patients, 0.3 mg daily dose, Week 4): −0.545
ADAS-Cog-13 (Baseline was assigned the value of zero @ Week 0) ([4]; de novo patients, 0.3 mg daily dose, Week 12): −1.0759
ADAS-Cog-13 (Baseline was assigned the value of zero @ Week 0) ([4]; de novo patients, 0.3 mg daily dose, Week 18): −0.4416
ADAS-Cog-13 (Baseline was assigned the value of zero @ Week 0) ([4]; de novo patients, 0.3 mg daily dose, Week 23): −0.3226
ADAS-Cog-13 (Baseline was assigned the value of zero @ Week 0) ([4]; de novo patients, 1 mg daily dose, Week 4): −0.5942
ADAS-Cog-13 (Baseline was assigned the value of zero @ Week 0) ([4]; de novo patients, 1 mg daily dose, Week 12): −2.311
ADAS-Cog-13 (Baseline was assigned the value of zero @ Week 0) ([4]; de novo patients, 1 mg daily dose, Week 18): −1.2239
ADAS-Cog-13 (Baseline was assigned the value of zero @ Week 0) ([4]; de novo patients, 1 mg daily dose, Week 23): −1.4169
ADAS-Cog-13 (Baseline was assigned the value of zero @ Week 0) ([4]; de novo patients, 2 mg daily dose, Week 4): 0.3542
ADAS-Cog-13 (Baseline was assigned the value of zero @ Week 0) ([4]; de novo patients, 2 mg daily dose, Week 12): −1.9196
ADAS-Cog-13 (Baseline was assigned the value of zero @ Week 0) ([4]; de novo patients, 2 mg daily dose, Week 18): −1.5539
ADAS-Cog-13 (Baseline was assigned the value of zero @ Week 0) ([4]; de novo patients, 2 mg daily dose, Week 23): −2.2283
Memory Composite Score (Baseline was assigned the value of zero @ Week 0) ([5]; 0.3 mg daily dose, Week 4): −0.0084
Memory Composite Score (Baseline was assigned the value of zero @ Week 0) ([5]; 0.3 mg daily dose, Week 12): −0.0108
Memory Composite Score (Baseline was assigned the value of zero @ Week 0) ([5]; 0.3 mg daily dose, Week 18): −0.0294
Memory Composite Score (Baseline was assigned the value of zero @ Week 0) ([5]; 0.3 mg daily dose, Week 23): −0.0645
Memory Composite Score (Baseline was assigned the value of zero @ Week 0) ([5]; 1 mg daily dose, Week 4): −0.0062
Memory Composite Score (Baseline was assigned the value of zero @ Week 0) ([5]; 1 mg daily dose, Week 12): 0.08
Memory Composite Score (Baseline was assigned the value of zero @ Week 0) ([5]; 1 mg daily dose, Week 18): −0.0456
Memory Composite Score (Baseline was assigned the value of zero @ Week 0) ([5]; 1 mg daily dose, Week 23): 0.0113
Memory Composite Score (Baseline was assigned the value of zero @ Week 0) ([5]; 2 mg daily dose, Week 4): −0.0032
Memory Composite Score (Baseline was assigned the value of zero @ Week 0) ([5]; 2 mg daily dose, Week 12): 0.1021
Memory Composite Score (Baseline was assigned the value of zero @ Week 0) ([5]; 2 mg daily dose, Week 18): 0.117
Memory Composite Score (Baseline was assigned the value of zero @ Week 0) ([5]; 2 mg daily dose, Week 23): 0.169
Memory composite score Effect Size [5, 6]: 0.37
